# Data: patent US20110251069A1, “ISOXAZOLE DERIVATIVES FOR USE AS PLANT GROWTH REGULATORS” (SYNGENTA CROP PROTECTION LLC, priority 2008, published 2011)
# System: wheat plants cultivar (cv.). Riband
# Experiment: Biological evaluation of plant growth regulation effects on wheat
# Format: in vivo
# Settings: 200 ppm; 2 weeks old wheat plants cv. Riband sprayed with formulated compound; assessed after 8 days at 22° C. and 80% r. h. in a greenhouse
# Method: Biological Evaluation of Plant Growth Regulation Effects on Wheat
# 2 weeks old wheat plants cultivar (cv.). Riband were treated with the formulated test compound in a spray chamber. After an incubation period of 8 days at 22° C. and 80% relative humidity (r. h.) in a greenhouse, the plant growth regulating effects were assessed.
smiles,measurement,value
"OC(c1cccnc1)c1c(-c2ccccc2Cl)csc1-c1ccc(F)cc1F (stereo not shown) [Compound 175, 2-(2,4-Difluorophenyl)-4-(2-chlorophenyl)-3-[(3-pyridyl)hydroxymethyl]-thiophene]",plant growth regulating effects,plant height decrease
